Experimental data from EPA's ToxValDB 9.5.

What was measured:
Canidae = settings: chronic, Dog Other
[1] = chronic, duration: 2 years, M/F, clinical chemistry
[2] = subchronic, duration: 90 days, oral, diet, M/F, Sprague-Dawley, no effects

Compound `O=S(=O)([O-])c1ccc(N=Nc2c(O)ccc3cc(S(=O)(=O)[O-])ccc23)cc1.[Na+].[Na+]` [FD&C Yellow 6] has an NOAEL (Rattus norvegicus; reproduction developmental, duration: 28 days, oral, diet, body weight) of 375 mg/kg-day, an NOAEL (Rattus norvegicus; subchronic, duration: 90 days, oral, diet, M/F, histopathology: nonneoplastic) of 500 mg/kg-day and an NOAEL (Canidae; duration: 7 years, oral, F, no effects) of 500 mg/kg-day.

`CCCCOC(=O)c1ccccc1C(=O)OCc1ccccc1` [Benzyl butyl phthalate] gave an NOAEL (Rattus norvegicus; developmental, oral, diet, M/F, development) of 50 mg/kg-day.

In the case of `CCCCCCCCCCCCCCCCCC(=O)OC(C)C(=O)OC(C)C(=O)[O-].CCCCCCCCCCCCCCCCCC(=O)OC(C)C(=O)OC(C)C(=O)[O-].[Ca+2]` (stereo not drawn) [Calcium stearoyl-2-lactylate], the NOAEL (Rattus norvegicus; chronic, duration: 1 years, M/F, Wistar, no effects) is reported as 2200 mg/kg-day.

`O=c1ccc2ccccc2o1` [Coumarin] gave an NOAEL (Canidae; duration: 2 years, histopathology: nonneoplastic) of 10 mg/kg-day.

`Cc1cc2nc3c(=O)[nH]c(=O)nc-3n(C[C@H](O)[C@H](O)[C@H](O)COP(=O)([O-])O)c2cc1C.[Na+]` [Riboflavin 5'-(dihydrogen phosphate), sodium salt (1:1)] showed an NOAEL (Rattus norvegicus; subchronic, duration: 90 days, M/F, Wistar, no effects) of 160 mg/kg-day.

Work on `Clc1ccc(-c2ccc(Cl)cc2Cl)cc1` [2,4,4'-Trichlorobiphenyl] yielded an NOAEL (Rattus norvegicus; subchronic, duration: 90 days, clinical chemistry) of 0.4 mg/kg-day.

`CCOC(=O)C1OC1(C)c1ccccc1` (stereo not drawn) [Ethyl methylphenylglycidate] was tested, and the NOAEL (Rattus norvegicus; [1]) was 35 mg/kg-day.

For `CCC1SSC(CC)S1` (stereo not drawn) [3,5-Diethyl-1,2,4-trithiolane], the NOAEL (Rattus norvegicus; [2]) was 0.2 mg/kg-day.

For `CC(=O)N[C@H]1[C@H](O[C@H]2[C@@H](O)[C@@H](CO)O[C@@H](O[C@@H]([C@H](O)[C@@H](O)C=O)[C@H](O)CO)[C@@H]2O)O[C@H](CO)[C@@H](O[C@@H]2O[C@H](CO)[C@H](O)[C@H](O)[C@H]2O)[C@@H]1O` [Lacto-N-neotetraose], the NOAEL (Rattus norvegicus; subchronic, duration: 90 days, oral, gavage, M/F, Wistar, hematological) was 2500 mg/kg-day.

Work on `OC1CSC(O)CS1` (stereo not drawn) [1,4-Dithiane-2,5-diol] yielded an NOAEL (Rattus norvegicus; [2]) of 3.14 mg/kg-day.

Work on `CC(O)CO` (stereo not drawn) [1,2-Propylene glycol] yielded an NOEL (Rattus norvegicus; chronic, duration: 2 years) of 2500 mg/kg-day.

Compound `CC1S[C@H](C)N[C@H](C)S1` (stereo partly drawn) [Thialdine] has an NOAEL (Rattus norvegicus; subchronic, duration: 90 days, oral, diet, M, histopathology: nonneoplastic) of 9.3 mg/kg-day.

`CC(C)CCCCCCOC(=O)C1CCCCC1C(=O)OCCCCCCC(C)C` (stereo not drawn) [Diisononyl cyclohexane-1,2-dicarboxylate] was tested, and the NOAEL (Rattus norvegicus; subchronic, duration: 13 weeks, M/F, Wistar, clinical chemistry) was 100 mg/kg-day.

Compound `SCCCCCCCCS` [1,8-Octanedithiol] has an NOAEL (Rattus norvegicus; [2]) of 0.705 mg/kg-day.

With `CCOC(=O)c1ccoc1-c1ccccc1` [3-Furancarboxylic acid, 2-phenyl-, ethyl ester] the NOEL (Rattus norvegicus; subchronic, duration: 90 days, oral, diet) was 13 mg/kg-day.

`COc1cc(/C=C/C(=O)CC(=O)/C=C/c2ccc(O)c(OC)c2)ccc1O` [Curcumin] showed an NOAEL (Rattus norvegicus; reproduction developmental, duration: 24 weeks, oral, diet, M/F, body weight) of at least 250 mg/kg-day.

Compound `O=C([O-])c1[nH]n(-c2ccc(S(=O)(=O)[O-])cc2)c(=O)c1N=Nc1ccc(S(=O)(=O)[O-])cc1.[Na+].[Na+].[Na+]` [C.I. Acid Yellow 23] has an NOAEL (Rattus norvegicus; chronic, M, body weight) of 984 mg/kg-day.

`CCC(C)(C)c1ccc(O)c(C(C)(C)CC)c1` [2,4-Di-tert-pentylphenol] gave an NOAEL (Rattus norvegicus; subchronic, duration: 90 days, oral, M/F, Wistar, histopathology: nonneoplastic) of 5 mg/kg-day.

`CC(S)C(C)S` (stereo not drawn) [2,3-Butanedithiol] gave an NOAEL (Rattus norvegicus; [2]) of 0.703 mg/kg-day.

`C/C=C/C=C/C(=O)[O-].[K+]` [Potassium (E,E)-hexa-2,4-dienoate] was tested, and the NOAEL (Rattus norvegicus; reproduction developmental, oral, gavage, M/F, Crj:CD, body weight) was 300 mg/kg-day.

Compound `CN(C)C` [Trimethylamine] has an NOAEL (Rattus norvegicus; subchronic, duration: 90 days) of 90 mg/kg-day.

Compound `CC(C)=CCCC(C)C=O` (stereo not drawn) [2,6-Dimethylhept-5-enal] has an NOAEL (Rattus norvegicus; subchronic, duration: 3 months, oral, diet, M/F, organ weight) of 37 mg/kg-day.

`CCCCC(CC)COC(=O)c1ccc(C(=O)OCC(CC)CCCC)c(C(=O)OCC(CC)CCCC)c1` (stereo not drawn) [Tris(2-ethylhexyl) trimellitate] showed an NOAEL (Rattus norvegicus; subchronic, duration: 90 days, oral, diet, M/F, Sprague-Dawley, organ weight) of 225 mg/kg-day.

For `O=C([O-])c1cc(C(=O)[O-])c2c(n1)C(=O)C(=O)c1cc(C(=O)O)[nH]c1-2.[Na+].[Na+]`, the NOAEL (Rattus norvegicus; subchronic, duration: 90 days, oral, gavage, M/F, Crj:CD) was 100 mg/kg-day.

`CCOC(=O)C1OC1(C)c1ccc(C)cc1` (stereo not drawn) [Ethyl 3-methyl-3-(4-methylphenyl)oxirane-2-carboxylate] gave an NOAEL (Rattus norvegicus; [1]) of 35 mg/kg-day.

For `CC/C=C/CCOC(=O)C(CC)CC` [Hex-3-enyl 2-ethylbutanoate], the NOAEL (Rattus norvegicus; reproduction developmental, duration: 10 days, oral, gavage, F, Sprague-Dawley, no effects) was 200 mg/kg-day and the NOAEL (Rattus norvegicus; reproduction developmental, duration: 10 days, oral, gavage, F, no effects) was 200 mg/kg-day.

For `OCc1ccccc1` [Benzyl alcohol], the NOAEL (Rattus norvegicus; chronic, duration: 103 weeks, oral, gavage, M/F, no effects) was 400 mg/kg-day.

Compound `CC(C)CC(=O)N1CCC[C@H](COc2cccc3c2C(N)=NS(=O)(=O)N3)C1` has an NOAEL (Rattus norvegicus; reproduction developmental, duration: 15 days, oral, gavage, no effects) of 1000 mg/kg-day and an NOAEL (Rattus norvegicus; subchronic, duration: 13 weeks, oral, diet, M/F, no effects) of 100 mg/kg-day.

`CC(=O)c1cccc2ccccc12` [1'-Acetonaphthone] showed an NOAEL (Rattus norvegicus; subchronic, duration: 90 days, oral, diet, M/F, no effects) of 33 mg/kg-day.
